Measurements reported in publication PMC8132114 (ACS combinatorial science, 2019).
*1 amine or outer side, *2 acyl side, *3 side chain or, on linkers, in order; H or OH if unused. Where a SMILES comes first, the peptide text is derived from it. [ ]: non-standard residue; d: D form. The star is where a group is joined. X1 = O=C([C@H](CCON=Cc1c(Cl)cncc1Cl)N[*:1])[*:2]; Biotin = O=C1N[C@H]2[C@H](CS[C@H]2CCCCC(=O)*)N1; pY = N[C@@H](Cc1ccc(OP(=O)(O)O)cc1)C(=O)O; Ahx = NCCCCCC(=O)O

Molecular target: VH1 C110S
Format: binding, Variola major
Details: pH 6.2

CC(C)[C@H](NC(=O)CCCCCNC(=O)CCCC[C@@H]1SC[C@@H]2NC(=O)N[C@@H]21)C(=O)N[C@@H](CC(=O)O)C(=O)N[C@@H](C)C(=O)N[C@@H](CC(=O)O)C(=O)N[C@@H](CCC(=O)O)C(=O)N[C@@H](Cc1ccc(OP(=O)(O)O)cc1)C(=O)N[C@@H](CCON=Cc1c(Cl)cncc1Cl)C(N)=O [Peptide 6f-w202] ({Biotin-Ahx}-VDADE[pY][X1]-NH2)
Kd: 73 ± 27 nM
